Assay [1] deals with lung cancer (A-549) cell line. The experiment in a line: Antiproliferative MTT assay, A-549. As to conditions: Homo sapiens, A549, A-549 lung cancer cells, read-out: Antiproliferative activity IC50 ± SEM A-549. The format is cell-based. The protocol: (§1) 4.2.1.2. Assay for antiproliferative effect
(§2) To explore the antiproliferative potential of compounds MTT assay was performed according to previously reported procedure using different cell lines to explore the antiproliferative potential of […]
(§3) calculate the total nuclear DNA, a fluorescent dye (propidium iodide, PI) is used which can attach to the DNA, thus offering a quick and precise technique. PI cannot pass through the cell membrane and its signal intensity can be considered as directly proportional to quantity of cellular DNA.
(§4) Cells whose cell membranes are damaged or have changed permeability are counted as dead ones.
(§5) The assay was performed by seeding the cells of different cell lines at a density of 3000-7500 cells/well (in 200µl medium) in culture plates followed by incubation for 24h at 37 °C in humidified 5% CO2/95% air atmospheric conditions. The medium was removed; the compounds were added to the plates at 10 µM concentrations (in 0.1% DMSO) in triplicates, followed by incubation for 48 h. DMSO (0.1%) was used as control. After incubation, medium was removed […]
(§6) 80 °C, the plates were allowed to freeze for 24 h, followed by thawing at 25 °C. […]
(§7) (Polar-Star BMG Tech) was used to record the readings at excitation and emission wavelengths of 530 and 620 nm for each well. The percentage cytotoxicity of compounds was calculated using […]
(§8) Where ATC= Absorbance of treated cells and AC= Absorbance of control. Erlotinib was used as positive control in the assay.
(In general: Tetrazolium assays rely on reduction of a dye to a coloured formazan, in cell work by metabolically active cells.)

Assay [2] concerns breast cancer (MCF-7) cell line. Description: Antiproliferative MTT assay, MCF-7. The assay is classed as cell-based. Conditions: Homo sapiens, MCF7, MCF-7 breast cancer cells, read-out: Antiproliferative activity IC50 ± SEM MCF-7. As for the experimental part: as §1, §2, §3, §4, §5, §6, §7, §8
Assay [3] deals with A-549 cells. Description: Cell cycle analysis by flow cytometry. The assay is classed as cell-based, human. As to conditions: A-549, IC50 concentration, 24 h. The source says:
Compound 9b was investigated for its effects on cell cycle progression and apoptosis induction in A-549 cells. […] The cell line was labeled with PI/Annexin V, and flow cytometry was done with a BD FASC Caliber ([El-Sherief et al., 2018]).
Compound 9b was investigated for its effects on cell cycle progression and apoptosis induction in A-549 cells. […] The cell line was labeled with PI/Annexin V, and flow cytometry was done with a BD FASC Caliber ([El-Sherief et al., 2018]). See Supplementary Appendix A for more details.

The subject of assay [4] is colon cancer (HT-29) cell line. Description: Antiproliferative MTT assay, HT-29. The assay is classed as cell-based. Conditions: Homo sapiens, HT-29 colon cancer cells, read-out: Antiproliferative activity IC50 ± SEM HT-29.
For assay [5], the target named is T1, BRAF^V600E (Homo sapiens, UniProt P15056, V600E).
T1 construct: Mouse full-length GST-tagged BRAFV600E; GST; purchased Invitrogen PV3849
T1 sequence (P15056 2-766 V600E limits assumed): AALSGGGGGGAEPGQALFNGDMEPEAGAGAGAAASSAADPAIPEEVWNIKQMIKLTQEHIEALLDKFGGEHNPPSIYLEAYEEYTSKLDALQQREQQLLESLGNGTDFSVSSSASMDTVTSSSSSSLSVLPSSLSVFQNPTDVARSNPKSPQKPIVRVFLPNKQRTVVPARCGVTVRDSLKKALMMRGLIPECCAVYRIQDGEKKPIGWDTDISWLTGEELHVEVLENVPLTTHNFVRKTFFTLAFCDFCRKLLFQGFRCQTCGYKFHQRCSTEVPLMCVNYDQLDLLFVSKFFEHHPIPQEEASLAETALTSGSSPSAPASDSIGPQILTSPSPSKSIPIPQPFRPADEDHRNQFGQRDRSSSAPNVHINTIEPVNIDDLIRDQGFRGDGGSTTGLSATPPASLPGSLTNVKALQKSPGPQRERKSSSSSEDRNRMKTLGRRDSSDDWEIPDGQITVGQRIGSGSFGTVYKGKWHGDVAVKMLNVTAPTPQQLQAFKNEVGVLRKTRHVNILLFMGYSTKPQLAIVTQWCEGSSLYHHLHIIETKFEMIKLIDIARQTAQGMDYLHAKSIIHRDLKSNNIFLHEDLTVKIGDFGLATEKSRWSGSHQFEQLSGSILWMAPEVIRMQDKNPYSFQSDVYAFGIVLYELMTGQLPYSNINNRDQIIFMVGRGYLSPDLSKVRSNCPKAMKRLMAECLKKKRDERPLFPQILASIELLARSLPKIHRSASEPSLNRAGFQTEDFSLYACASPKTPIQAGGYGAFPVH
The experiment in a line: BRAF^V600E kinase inhibitory assay. As to conditions: read-out: BRAF^V600E inhibition IC50 ± SEM. The assay is classed as biochemical, Mouse. The protocol:
Refer to Supplementary Appendix A for more details. […]
4.2.1.4. BRAF kinase assay […]
against BRAF. Mouse full-length GST-tagged BRAFV600E (7.5 ng, Invitrogen, PV3849) was pre-incubated with drug (1 µL) and assay dilution buffer (4 µL) for 60 min at 25 °C. In assay dilution buffer, a solution (5 µL) containing MgCl2 (30 mM), ATP (200 µM), recombinant human full length (200 ng) […] N-terminal His-tagged MEK1 (Invitrogen) was added to start the assay, subsequent to incubation for 25 min at 25 °C. The assay was stopped using 5X protein denaturing buffer (LDS) solution (5 µL). To further denature the protein, heat (70° C) was applied for 5 min.
10 µL of each reaction was loaded into the precast plates and electrophoresis was allowed to proceed. After completion of electrophoresis, the front part of the precast gel plate (holding hot ATP) was cut and afterwards cast-off. The dried gel was developed using a phosphor screen. A […]
served as positive control. […]
(FITC) and propidium iodide (PI) staining kit (BD Pharmingen, San Diego, USA). […]
4.3. Statistical analysis
Computerized Prism 5 program was used to statistically analyzed data using one-way ANOVA test followed by Tukey’s as post ANOVA for multiple comparison at P ≤.05. Data were presented

The target in assay [6] is EGFR^T790M (Homo sapiens, UniProt P00533, T790M). The experiment in a line: EGFR^T790M inhibitory assay (HTRF KinEASE-TK).
EGFR^T790M, sequence (P00533 25-1210 T790M): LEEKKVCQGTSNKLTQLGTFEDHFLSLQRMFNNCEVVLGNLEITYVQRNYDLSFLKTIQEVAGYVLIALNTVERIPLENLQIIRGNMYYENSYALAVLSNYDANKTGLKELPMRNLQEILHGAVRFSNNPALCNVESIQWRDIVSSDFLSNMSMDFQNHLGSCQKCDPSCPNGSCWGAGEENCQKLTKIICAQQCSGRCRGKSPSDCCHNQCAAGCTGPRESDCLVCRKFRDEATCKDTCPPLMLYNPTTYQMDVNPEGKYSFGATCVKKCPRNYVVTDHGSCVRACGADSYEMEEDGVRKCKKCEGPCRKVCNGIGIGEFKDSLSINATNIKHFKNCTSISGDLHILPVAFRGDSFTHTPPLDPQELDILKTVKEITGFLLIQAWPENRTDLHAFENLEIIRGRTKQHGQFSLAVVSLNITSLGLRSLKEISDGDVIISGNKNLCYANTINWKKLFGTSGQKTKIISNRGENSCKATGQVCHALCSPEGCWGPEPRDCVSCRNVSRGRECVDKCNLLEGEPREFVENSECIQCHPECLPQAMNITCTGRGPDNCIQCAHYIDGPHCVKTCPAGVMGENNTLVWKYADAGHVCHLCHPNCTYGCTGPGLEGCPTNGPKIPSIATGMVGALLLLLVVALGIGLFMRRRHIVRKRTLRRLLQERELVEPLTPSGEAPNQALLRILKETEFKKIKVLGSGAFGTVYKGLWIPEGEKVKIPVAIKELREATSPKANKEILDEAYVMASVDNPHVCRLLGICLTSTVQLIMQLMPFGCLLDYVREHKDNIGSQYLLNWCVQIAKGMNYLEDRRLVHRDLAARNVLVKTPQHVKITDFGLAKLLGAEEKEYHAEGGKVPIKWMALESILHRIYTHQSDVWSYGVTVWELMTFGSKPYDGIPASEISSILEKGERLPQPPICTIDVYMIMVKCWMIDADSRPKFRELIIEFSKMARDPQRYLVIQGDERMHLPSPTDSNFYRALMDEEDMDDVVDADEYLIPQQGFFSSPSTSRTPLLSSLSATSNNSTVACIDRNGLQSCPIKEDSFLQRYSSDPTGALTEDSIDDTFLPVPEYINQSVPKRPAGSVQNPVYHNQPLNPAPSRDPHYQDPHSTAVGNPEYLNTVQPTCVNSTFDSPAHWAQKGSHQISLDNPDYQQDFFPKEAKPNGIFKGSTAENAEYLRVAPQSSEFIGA
The subject of assay [7] is A-549 cells. The experiment in a line: Apoptosis induction assay, Annexin V/PI flow cytometry. Conditions: A-549, Annexin V/PI, 24 h. The assay is classed as cell-based, human. As for the experimental part:
To assess 9b′s potential to induce apoptosis, A-549 cells were labeled with Annexin V/PI, grown for 24 h, and evaluated.
Compound 9b was investigated for its effects on cell cycle progression and apoptosis induction in A-549 cells. […] The cell line was labeled with PI/Annexin V, and flow cytometry was done with a BD FASC Caliber ([El-Sherief et al., 2018]). See Supplementary Appendix A for more details. […]
served as positive control. To study the effect of compounds on cell-based pERK1/2 activity in cancer cells, commercially available ELISA kits (Invitrogen) were used according to manufacturer’s instructions.
4.2.1.6. Cell apoptosis assay
Apoptosis was determined by flow cytometry based on the Annexin-V-fluoresce in isothiocyanate (FITC) and propidium iodide (PI) staining kit (BD Pharmingen, San Diego, USA).
(FITC) and propidium iodide (PI) staining kit (BD Pharmingen, San Diego, USA). Apoptotic cells were defined as Annexin-V-positive. Cells were grown to approximately ∼70% confluence and exposed to different concentrations of compounds (0, 2, 4, 6 and8 μmol/L) for 24 h. […] Subsequently, cells were analyzed by flow cytometry (Becton Dickinson, Franklin Lakes, and USA). […]
Computerized Prism 5 program was used to statistically analyzed data using one-way ANOVA test followed by Tukey’s as post ANOVA for multiple comparison at P ≤.05. […]

`O=c1c2ccccc2nc(SCc2nc(-c3ccc(Cl)cc3)no2)n1-c1ccccc1` [Compound 9b, 2-((3-(4-Chlorophenyl)-1,2,4-oxadiazol-5-yl)methylthio)-3 phenylquinazolin-4(3H)-one]: the IC50 was 22 ± 2 nM in assay [1]; 26 ± 2 nM in assay [2]; 24 ± 2 nM in assay [4]; 48 ± 4 nM in assay [5]; 10 ± 1 nM in assay [6]. Further, the “Effect on cell cycle” value in assay [3] was “cell cycle arrest at the G2/M transition”. In addition, the Necrosis percentage in assay [7] was 6.43%.

As a reminder, the IC50 is the midpoint of a concentration-inhibition curve.
